Where two headings read alike, the source gives them in different places.
Key:
ZIKV [1] = assay: Viral titer reduction assay, ZIKV in A549 cells; type: cell-based, Zika virus; conditions: Zika virus
Protocol: Viral Titer Reduction Assay. A viral titer reduction assay was used to determine the compounds' effect on DENV2 and ZIKV strains, as described previously. […] Human A549 lung carcinoma cells and human primary neural progenitor cells were used, as described previously. […] All experiments were performed in triplicates.

ZIKV [2] = assay: Time of addition experiment; type: cell-based, Zika virus; conditions: 0.75 μM added post-infection, titers at 48 hrs
Protocol: FIGS. 6A-6C show mechanism of action studies. […] Viral titers were quantified using plaque forming assay 48 hrs post-infection. DMSO was added to control. N=3. ***, p<0.001. […] N=3. […] Right, Band intensities of PP and NS3 normalized to the GAPDH control (N=3). […] Li et al., “Existing Drugs as Broad-Spectrum and Potent Inhibitors for Zika Virus by Targeting NS2B-NS3 Interaction,” Cell Res. 27:1046-1064 (2017), which is hereby incorporated by reference in its entirety. At 48 hrs post-infection, cells were washed, harvested, and protected by protease inhibitor cocktail prior to lysis by SDS-PAGE loading buffer. Upon incubation at 95° C. for 10 min, sample was subjected to Western blot analysis with anti-ZIKV NS3 (GTX133309, GeneTex, Inc.) and anti-GAPDH (CB1001, EMD Millipore) as primary antibodies. Error bars in all panels represent the standard deviations at each condition.
Antiviral inhibitors are generally divided into two categories, entry and post-entry (replication), respectively.

viral NS3 protease = target: T1, viral NS3 protease (Dengue virus type 2, UniProt P29990); assay: Protein thermal shift assay (PTSA); type: binding
T1 construct: made in house
T1 sequence (P29990 1476-1659): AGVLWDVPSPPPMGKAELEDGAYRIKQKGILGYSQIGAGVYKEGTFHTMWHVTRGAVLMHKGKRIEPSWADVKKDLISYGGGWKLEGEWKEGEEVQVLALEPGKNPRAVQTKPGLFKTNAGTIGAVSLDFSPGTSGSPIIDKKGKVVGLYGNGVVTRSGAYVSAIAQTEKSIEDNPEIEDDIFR
From the text: Li et al., “Existing Drugs as Broad-Spectrum and Potent Inhibitors for Zika Virus by Targeting NS2B-NS3 Interaction,” Cell Res. 27:1046-1064 (2017), which is hereby incorporated by reference in its entirety.

ZIKV [3] = assay: qRT-PCR of viral RNA from ZIKV-infected A549 cells; type: cell-based, Zika virus
Protocol: Quantitative qRT-PCR. Quantitative qRT-PCR was performed as described previously. Li et al., “Existing Drugs as Broad-Spectrum and Potent Inhibitors for Zika Virus by Targeting NS2B-NS3 Interaction,” Cell Res. 27:1046-1064 (2017); Li et al., “Erythrosin B is a Potent and Broad-Spectrum Orthosteric Inhibitor of the Flavivirus NS2B-NS3 Protease,” Antiviral Res. 150:217-225 (2018), which are hereby incorporated in their entirety. ZIKV primers […] (SEQ ID NO: 12) and […] (SEQ ID NO: 13) with ZIKV probe Cy5-[…]/TAO/[…]-IAbRQSp (SEQ ID NO: 14) were used. The 2-ΔΔCT (“delta-delta Ct”) method was used to quantify samples. All experiments were performed in triplicates.

[4] = Repeated oral dosing toxicity in mice; type: in vivo, mouse; conditions: repeated oral dosing 40 mg/kg/day for 7 days
DENV2 = assay: Viral titer (plaque) reduction assay, DENV2 in A549 cells; type: cell-based, Dengue virus serotype 2; conditions: Dengue virus, DENV2, A549 cells
Protocol: Viral Titer Reduction Assay. A viral titer reduction assay was used to determine the compounds' effect on DENV2 and ZIKV strains, as described previously. […] Human A549 lung carcinoma cells and human primary neural progenitor cells were used, as described previously. […] 13:e1006411 (2017), which are hereby incorporated by reference in their entirety. All experiments were performed in triplicates.
A viral plaque reduction assay was performed next to evaluate the antiviral efficacy of these derivatives. Human lung carcinoma A549 cells were infected with DENV2 in the presence of a concentration series of derivatives or a dimethyl sulfoxide (DMSO) control, and viral titers were measured at 48 hrs post-infection, as described previously.

in vitro = conditions: not told, Perme. (cell permeability)

With O=C(Nc1ccc([N+](=O)[O-])cc1Cl)c1cccc([N+](=O)[O-])c1O [JMX0207, N-(2-Chloro-4-nitrophenyl)-2-hydroxy-3-nitrobenzamide] the EC50 (ZIKV [1]; A549, read-out: EC50-ZK) was 300 nM, the EC50 (ZIKV [1]; A549, read-out: EC50-ZK (A549)) was 300 nM and the “reduction of ZIKV titer by time of addition” value (ZIKV [2]) was “equally effective in reducing ZIKV titer even at 24 hrs post-infection”. The “increase in Tm of the viral protein” value (viral NS3 protease) was 0.75 °C, the “ZIKV RNA copy number” value (ZIKV [3]) was “significantly reduced the ZIKV RNA copy number in a dose-dependent manner” and the sign of toxicity [4] was “did not display any sign of toxicity”. It also gave an EC50 (DENV2; 48 hrs post-infection, read-out: EC50-DN2 (A549)) of 310 nM, an EC50 (DENV2; Table 4, preliminary SAR, read-out: EC50-DN2) of 360 nM and a Papp (in vitro) of over 1 ×10⁻⁶ cm/s.
